Reference: patent US11485713B2, “Androgen receptor modulators and methods for their use” (ESSA Pharma, Inc., priority 2018, dated 2022)
pIC50: −log10 of the molar value.

Assays:
[1] = system: LNCaP ARE-Luc; test: Luciferase assay in LNCaP cell lysates (LNCaP ARE-Luc); assay type: cell-based; settings: Homo sapiens, Firefly Luciferase Assay System, read-out: LNCaP ARE-Luc % inhibition IC50 Ranges
Procedure: Lysates were thawed on ice then collected into V-bottom 96-well tissue culture plates. Lysates were centrifuged at 4° C. for 5 minutes at 4000 rpm. To measure luminescence of LNCaP cell lysates the Firefly Luciferase Assay System (Promega) was employed, according to manufacturer's protocol. Relative luminescence units (RLU) in cell lysates were detected for 10 seconds using Promega GoMax-Multi Detection Luminometer (Promega).
Statistical analyses were performed using GraphPad Prism (Version 6.01 for Windows; La Jolla, Calif., USA). Comparisons between treatment and control groups were compared using Two-Way ANOVA with post-hoc Dunnett's and Tukey's tests. Differences were considered statistically significant at P values less than 0.05. Densitometric quantification of relative AR levels was determined by Image.

[2] = Microsomal stability assay, HLM; assay type: in vitro ADME; settings: human, pH 7.4, 1 μM test compound, 0.5 mg/mL liver microsomes protein, 37° C., 0-60 min, read-out: HLM +/− NADPH: Clint (μL/min/mg protein)
From the text: Microsomal Stability Assay: Microsomal stability assay is a widely used in vitro model to characterize the metabolic conversion by phase I enzymes, such as cytochrome P450 (CYP) enzymes. Since metabolism is known to be highly variable in different species, microsomal stability assay is commonly run in multiple species. Metabolic stability of testing compound can be evaluated using human, rat, mouse, or other animal liver or intestine microsomes to predict intrinsic clearance.
The assay was carried out in 96-well microtiter plates at 37° C. Reaction mixtures (25 μL) contained a final concentration of 1 μM test compound, 0.5 mg/mL liver microsomes protein, and 1 mM NADPH and/or 1 mM UDPGA (with alamethicin) in 100 mM potassium phosphate, pH 7.4 buffer with 3 mM MgCl2. The incubation was done with N=1, but duplicate incubation at each time point can be prepared if necessary. At each of the time points (for example, 0, 15, 30, and 60 minutes), 150 μL of quench solution (100% acetonitrile with 0.1% formic acid) with internal standard was transferred to each well. Besides the zero minute controls, mixtures containing the same components except the NADPH can also be prepared as the negative control. Verapamil was included as a positive control to verify assay performance. Plates were sealed, vortexed, and centrifuged at 4° C. for 15 minutes at 4000 rpm. The supernatant is transferred to fresh plates for LC/MS/MS analysis.
Summarized conditions: [Compound]=1 μM, [LM]=0.5 mg/mL, [NADPH]=1 mM and/or [UDPGA]=1 mM, Buffer=100 mM Potassium Phosphate, pH 7.4 with 3 mM MgCl2, Time=0, 15, 30, and 60 min, and Temperature=37° C.
All samples were analyzed on LC/MS/MS using an AB Sciex API 4000 instrument, coupled to a Shimadzu LC-20AD LC Pump system. Analytical samples were separated using a Waters Atlantis T3 dC18 reverse phase HPLC column (20 mm×2.1 mm) at a flow rate of 0.5 mL/min. The mobile phase consisted of 0.1% formic acid in water (solvent A) and 0.1% formic acid in 100% acetonitrile (solvent B).
The extent of metabolism is calculated as the disappearance of the test compound, compared to the 0-min time incubation. Initial rates are calculated for the compound concentration and used to determine half-life (t½) values and subsequently, the intrinsic clearance (Clint). Clint=(0.693)(1/t½ (min))(g of liver/kg of body weight)(mL incubation/mg of microsomal protein)(45 mg of microsomal protein/g of liver weight)

SMILES | pIC50 [1] | microsomal CLint at 1 μM [2] [µL/min/mg]
CC(C)(c1ccc(OCC(=O)CS(C)(=O)=O)cc1)c1cc(Cl)c(OC[C@H](O)CCl)c(Cl)c1 [A54(S), (S)-1-(4-(2-(3,5-dichloro-4-(3-chloro-2-hydroxypropoxy)phenyl)propan-2-yl)phenoxy)-3-(methylsulfonyl)propan-2-one] | ≤ 6.60 | –
COc1cc(OCCCCl)ccc1C(C)(C)c1ccc(OCC(=O)CNS(C)(=O)=O)cc1 [Compound A4] | ≤ 6.60 | ≥ 48
CC(C)(c1ccc(OCC(=O)CNS(C)(=O)=O)cc1)c1ccc(OCCCCl)cc1Cl [Compound A6] | ≤ 6.60 | ≥ 48
CC(C)(c1ccc(OCC(=O)CNS(C)(=O)=O)cc1)c1ccc(OCCCCl)c(C#N)c1 [Compound A7] | > 7.00 | ≥ 48
COc1cc(C(C)(C)c2ccc(OCCCCl)cc2)ccc1OCC(=O)CNS(C)(=O)=O [Compound A11] | ≤ 6.60 | ≥ 48
COc1cc(OCC(=O)CNS(C)(=O)=O)ccc1C(C)(C)c1ccc(OCCCCl)cc1 [Compound A12] | ≤ 6.60 | ≥ 48
CC(C)(c1ccc(OCCCCl)cc1)c1ccc(OCC(=O)CNS(C)(=O)=O)cc1Cl [Compound A14] | ≤ 6.60 | ≥ 48
CC(C)(c1ccc(OCCCCl)cc1)c1ccc(OCC(=O)CNS(C)(=O)=O)c(C#N)c1 [Compound A15] | ≤ 6.60 | ≥ 48
CS(=O)(=O)NCC(=O)COc1cccc(Cc2ccc(Cl)c(OCCCCl)c2Cl)c1 [Compound A24] | ≤ 6.60 | ≥ 48
CC(CCl)COc1c(Cl)cc(C(C)(C)c2ccc(OCC(=O)CNS(C)(=O)=O)cc2)cc1Cl (stereo not shown) [Compound A32] | > 7.00 | ≥ 48
CC(C)(c1ccc(OCC(=O)CNS(C)(=O)=O)cc1)c1cc(Cl)c(OCCCl)c(Cl)c1 [Compound A33, N-(3-(4-(2-(3,5-dichloro-4-(2-chloroethoxy)phenyl)propan-2-yl)phenoxy)-2-oxopropyl)methanesulfonamide] | > 7.00 | ≥ 48
CC(C)(c1ccc(OCC(=O)CNS(C)(=O)=O)cc1)c1cc(Cl)c(NCCCCl)c(Cl)c1 [Compound A35] | 6.60 to 7.00 | ≥ 48
CN(CCCCl)c1c(Cl)cc(C(C)(C)c2ccc(OCC(=O)CNS(C)(=O)=O)cc2)cc1Cl [Compound A36] | 6.60 to 7.00 | ≥ 48
CC(C)(c1ccc(OCC(=O)CNS(C)(=O)=O)cc1)c1cc(Cl)c(OCc2ccc(Cl)cc2)c(Cl)c1 [Compound A38] | ≤ 6.60 | ≥ 48
CS(=O)(=O)NCC(=O)COc1ccc(C2(c3cc(Cl)c(OCCCCl)c(Cl)c3)COC2)cc1 [Compound A43, N-(3-(4-(3-(3,5-dichloro-4-(3-chloropropoxy)phenyl)oxetan-3-yl)phenoxy)-2-oxopropyl)methanesulfonamide] | > 7.00 | ≥ 48
CC(C)(c1ccc(OCC(=O)N2CCN(S(C)(=O)=O)CC2)cc1)c1cc(Cl)c(OCCCCl)c(Cl)c1 [Compound A44] | ≤ 6.60 | 12 to 48
CC(C)(c1ccc(NC(=O)CCNS(C)(=O)=O)cc1)c1cc(Cl)c(OCCCCl)c(Cl)c1 [Compound A45] | ≤ 6.60 | < 12
CC(C)(c1ccc(CNC(=O)CNS(C)(=O)=O)cc1)c1cc(Cl)c(OCCCCl)c(Cl)c1 [Compound A46, N-(4-(2-(3,5-dichloro-4-(3-chloropropoxy)phenyl)propan-2-yl)benzyl)-2-(methylsulfonamido)acetamide] | ≤ 6.60 | 12 to 48

SMILES | pIC50 [1] | microsomal CLint at 1 μM [2] [µL/min/mg]
CN(C)C(=O)NCc1ccc(C(C)(C)c2cc(Cl)c(OCCCCl)c(Cl)c2)cc1 [Compound A47] | ≤ 6.60 | ≥ 48
CC(C)(c1ccc(OCC(=O)CNS(C)(=O)=O)c(F)c1)c1cc(Cl)c(OCCCCl)c(Cl)c1 [Compound A48] | 6.60 to 7.00 | ≥ 48
CC(O)(CCl)COc1c(Cl)cc(C(C)(C)c2ccc(OCC(=O)CNS(C)(=O)=O)cc2)cc1Cl (stereo not shown) [Compound A52, N-(3-(4-(2-(3,5-dichloro-4-(3-chloro-2-hydroxy-2-methylpropoxy)phenyl)propan-2-yl)phenoxy)-2-oxopropyl)methanesulfonamide] | > 7.00 | ≥ 48
CC(O)(CCl)COc1c(Cl)cc(C(C)(C)c2ccc(OCC(=O)CS(C)(=O)=O)cc2)cc1Cl (stereo not shown) [Compound A53, 1-(4-(2-(3,5-dichloro-4-(3-chloro-2-hydroxy-2-methypropoxy)phenyl)propan-2-yl)phenoxy)-3-(methylsulfonyl)propan-2-one] | ≤ 6.60 | –
CC(C)(c1ccc(OCC(=O)NCCNS(C)(=O)=O)cc1)c1cc(Cl)c(OCCCCl)c(Cl)c1 [Compound A62] | ≤ 6.60 | 12 to 48
CC(C)(Oc1ccc(C(C)(C)c2cc(Cl)c(OCCCCl)c(Cl)c2)cc1)C(=O)CNS(C)(=O)=O [Compound A63] | > 7.00 | ≥ 48
CC(C)(NS(C)(=O)=O)C(=O)COc1ccc(C(C)(C)c2cc(Cl)c(OCCCCl)c(Cl)c2)cc1 [Compound A64] | ≤ 6.60 | < 12
CC(=O)COc1ccc(C(C)(C)c2cc(Cl)c(OCCCCl)c(Cl)c2)cc1 [Compound A74, 1-(4-(2-(3,5-dichloro-4-(3-chloropropoxy)phenyl)propan-2-yl)phenoxy)propan-2-one] | ≤ 6.60 | –
CC(C)(c1ccc(OC(F)(F)C(=O)C(N)=O)cc1)c1cc(Cl)c(OCCCCl)c(Cl)c1 [Compound A92] | ≤ 6.60 | –
CC(=O)C(=O)Nc1ccc(C(C)(C)c2cc(Cl)c(OCC(C)(O)CCl)c(Cl)c2)cc1 (stereo not shown) [Compound A96] | ≤ 6.60 | –
COC(=O)C(OC)C(O)(O)C(F)(F)Oc1ccc(C(C)(C)c2cc(Cl)c(OCCCCl)c(Cl)c2)cc1 (stereo not shown) [Compound A97] | 6.60 to 7.00 | –
CC(C)(c1ccc(OC(F)(F)C(=O)CNS(C)(=O)=O)cc1)c1cc(Cl)c(OCCCCl)c(Cl)c1 [Compound A99, N-(3-(4-(2-(3,5-dichloro-4-(3-chloropropoxy)phenyl)propan-2-yl)phenoxy)-3,3-difluoro-2-oxopropyl)methanesulfonamide] | 6.60 to 7.00 | –
COCC(=O)C(F)(F)Oc1ccc(C(C)(C)c2cc(Cl)c(OCCCCl)c(Cl)c2)cc1 [Compound A100, 1-(4-(2-(3,5-dichloro-4-(3-chloropropoxy)phenyl)propan-2-yl)phenoxy)-1,1-difluoro-3-methoxypropan-2-one] | ≤ 6.60 | –
CCOC(=O)CC(=O)C(F)(F)Oc1ccc(C(C)(C)c2cc(Cl)c(OCCCCl)c(Cl)c2)cc1 [Compound A101] | ≤ 6.60 | –
CC(C)(c1ccc(OC(F)(F)C(=O)CS(C)(=O)=O)cc1)c1cc(Cl)c(OCCCCl)c(Cl)c1 [Compound A102] | ≤ 6.60 | –
CC(=O)Oc1ccc(C(C)(C)c2cc(Cl)c(OCCCCl)c(Cl)c2)cc1 [Compound A103] | > 7.00 | –
CC(=O)N(CC(=O)COc1ccc(C(C)(C)c2cc(Cl)c(OCCCCl)c(Cl)c2)cc1)S(C)(=O)=O [Compound A104] | ≤ 6.60 | –
